PMC3199744, “Preformulation and stability in biological fluids of the retrocyclin RC-101, a potential anti-HIV topical microbicide” (AIDS Research and Therapy, 2011)
Read-outs that look alike come from different tables or passages of the source.

How the values were obtained:
[1] = test system: X4 and R5 strains of HIV-1; settings: cited from earlier work
Source text: Defensins are cysteine-rich, cationic antimicrobial peptides expressed by the leucocytes and epithelial cells of mammals. […] Retrocyclins (θ-Defensin) are the evolutionary descendants of α-defensin genes. Retrocyclins are circular 18-residue, tetracyclic peptides with three cysteine disulfide bonds. RC-101 ([…]), a cationic retrocyclin analog synthesized by solid phase peptide synthesis, has shown activity against X4 and R5 strains of HIV-1 in vitro [4]. The mechanism occur ...

[2] = Oxidation of RC-101 by hydrogen peroxide, HPLC; settings: 500 μg/mL
Experimental: (§1) For all pre-formulation studies described below, triplicate solutions of RC-101 (500 μg/mL) were prepared in either water or aqueous buffer solution. Thermal degradation studies were conducted at 25, 37, and 65°C for a minimum period of 1 week. The effect of pH on the stability of RC-101 was evaluated over the pH range from 3 to 12 using 10 mM phosphate buffer solutions, at low (50 mmol/kg) and high (500 mmol/kg) ionic strength. Oxidation of RC-101 was evaluated by exposing a solution of RC-101 to hydrogen peroxide (H2O2) at concentrations of 3.0, 0.08, and 0.002% (v/v). The high H2O2 concentration (3.0%) was selected as a forced degradation concentration. […] Protection against oxidation was investigated by the addition of antioxidants commonly used in pharmaceutical products. The antioxidants used in this study were: methionine (95.2 μg/mL or 250 μg/mL), cysteine (95.2 μg/mL), glutathione (90.9 μg/mL), vitamin E TPGS (90.9 μg/mL), ascorbic acid (1.0 mg/mL), sodium ascorbate (1.0 mg/mL), and EDTA (1.0 μg/mL).
(§2) RC-101 concentration after exposure to preformulation conditions was analyzed by HPLC as previously described [11]. Briefly, the HPLC system (Waters Corporation, Milford, MA) was equipped with an autoinjector model 717, a quaternary pump model 600, and an ultraviolet (UV) detector model 2487 set up at 215 nm. Separation of RC-101 from degradant products was achieved using a Phenomenex Jupiter 5 μC5 300 Å (4.6 × 250 mm) column (Phenomenex, Torrance, CA) protected by a Widepore C5 (4 × 3.0 mm) guard cartridge (Phenomenex). The gradient consisted of mobile phase A (0.1% TFA in water (v/v)), and mobile phase B (0.07% TFA in acetonitrile (v/v)) pumped at a flow rate of 1.0 mL/min. […]
(§3) HPLC data obtained from the preformulation studies were expressed as the average percentage of the peak area from time 0 ± standard deviation, n = 3. Results were analyzed by one-way analysis of variance (ANOVA) with multiple comparisons of individual time points by using post hoc Bonferroni correction to detect significant differences under different conditions. […]

[3] = for detection of RC-101 by LC-MS/MS: frozen HVF (-80°C, 3 months) 1:1, 37°C, nanoLC-SRM MS, qualitative
Experimental: The HVF from the Instead Softcup® was removed by centrifugation of the conical tube for 10 min at 5,000 rpm. […] HVF was then removed from the cup and the pH of each HVF sample was measured with Fisher Alkacid pH filter strips (Fisher Scientific). All samples collected on a specific day were pooled to be used for the research studies. If the pH of the individual samples was higher than 5, the sample was not included in the pool but it was stored at -80°C for separate analysis. If the sample contained blood, it was immediately discarded. Samples were prepared as described in Table 1. […] Because of its high viscosity, HVF was measured by weight and not by volume. All solutions were prepared fresh and incubated with HVF (or water) at 37°C for specific periods of time (0, 2, 6, 12, 24, 48, and 72 h), unless specified otherwise. At each time point, the samples were centrifuged at 10,000 rpm for 10 min to separate the supernatant from the epithelial cells as described in the cell processing section. Both parts (supernatant and cells) were stored at -80 ± C until analyzed by LC-MS/MS. To evaluate the influence of freezing the fluid prior to the analysis, the last pool of HVF was divided into two samples: one used fresh (at the time of collection), and the other one stored at -80°C for a 3-month period. After that time period, HVF was thawed and processed for blank and RC-101 solution only, as described in Table 1. HVF samples collected with a high pH value indicative of BV were stored at -80°C as previously mentioned. After confirmation of BV on those fluid samples by Gram stain score, the fluid samples (HVF BV^+) were thawed, pooled, and processed as described in Table 1.
At each time point, the sample was removed from the incubation chamber and centrifuged for 10 min at 10,000 rpm, at 4 ± C to separate the supernatant from cell pellet. Supernatant (100 μL) was added to microcentrifuge filters Ultracel YM-10 Microcon MWCO 10,000 (Millipore Corporation, Bedford, MA), which were pre-washed with Milli Q water to eliminate any trace of propylene glycol from the filters. Samples were centrifuged twice for 15 min at 8,500 rpm, at 4 ± C. The filtrate was collected and frozen at -80 ± C until further analysis. A solution of 3 M urea was added to the cell pellet (1:1 w/w) obtained from the first centrifugation, to lyse the cells. This mixture was vortexed three times for 30 sec, and then centrifuged for 10 min at 10,000 rpm, at 4 ± C. The supernatant obtained from the cell lysate was then added to microcentrifuge filters Ultracel YM-10 Microcon MWCO 10,000 pre-washed with Milli Q water. Samples were centrifuged twice for 15 min at 8,500 rpm, at 4 ± C. The filtrate was collected and frozen at -80 ± C until analysis. […] Samples were thawed and added to PepCleanTM C-18 spin columns (Pierce Biotechnology Inc., Rockford, IL) for desalting, after column conditioning with acetonitrile:water (50:50) and equilibration with 0.1% trifluoroacetic acid. The column was washed three times with 0.1% trifluoroacetic acid, and RC-101 was eluted with acetonitrile:water (60:40) in 0.1% trifluoroacetic acid. Samples were dried in a speed vacuum CentriVap concentrator (LabConco Corp., Kansas City, MO) and resuspended with 200 μL of Milli Q water for LC-MS/MS analysis. Each sample described in Table 1 originated two sets of samples: one labeled as supernatant and the second one labeled as cells.
Integrated electrospray ionization (ESI)-capillary reversed-phase columns (75 μm inner diameter × 360 μm outer diameter × 100 mm length) packed with 5 μm 300 Å pore size Jupiter C18 reversed-phase stationary phase (Phenomenex) were prepared, as previously described. Solvent flow was supplied by a nanoflow HPLC system (Ultimate 3000, Dionex Corporation, Sunnyvale, CA).

[4] = Stability of RC-101 in 3 M urea; type: physicochemical
Experimental: At each time point, the sample was removed from the incubation chamber and centrifuged for 10 min at 10,000 rpm, at 4 ± C to separate the supernatant from cell pellet. Supernatant (100 μL) was added to microcentrifuge filters Ultracel YM-10 Microcon MWCO 10,000 (Millipore Corporation, Bedford, MA), which were pre-washed with Milli Q water to eliminate any trace of propylene glycol from the filters. Samples were centrifuged twice for 15 min at 8,500 rpm, at 4 ± C. The filtrate was collected and frozen at -80 ± C until further analysis. A solution of 3 M urea was added to the cell pellet (1:1 w/w) obtained from the first centrifugation, to lyse the cells. This mixture was vortexed three times for 30 sec, and then centrifuged for 10 min at 10,000 rpm, at 4 ± C. The supernatant obtained from the cell lysate was then added to microcentrifuge filters Ultracel YM-10 Microcon MWCO 10,000 pre-washed with Milli Q water. Samples were centrifuged twice for 15 min at 8,500 rpm, at 4 ± C. The filtrate was collected and frozen at -80 ± C until analysis. […] Samples were thawed and added to PepCleanTM C-18 spin columns (Pierce Biotechnology Inc., Rockford, IL) for desalting, after column conditioning with acetonitrile:water (50:50) and equilibration with 0.1% trifluoroacetic acid. […]

[5] = Thermal degradation of RC-101 solution, HPLC; type: physicochemical; settings: 500 μg/mL solution, HPLC-UV 215 nm
Experimental: as §1, §2, §3

GICRCICGKGICRCICGR (bicyclic or more) [RC-101, cationic retrocyclin analog; circular 18-residue tetracyclic peptide with three cysteine disulfide bonds]
activity against X4 and R5 strains of HIV-1 in vitro [1]: activity | degradation rate compared with 3.0% H2O2 ([2]; 0.002% and 0.08% H2O2 (biologically relevant), HPLC): slower | loss of RC-101 ([2]; 3.0% H2O2 (forced degradation), 4 h, HPLC-UV, n = 3): 20% | difference in the peptide after incubation with frozen fluid versus fresh HVF ([3]; HVF stored at -80°C for 3 months, thawed, 1:1 with RC-101 100 μg/mL solution, 37°C, LC-MS/MS not quantitative): No detectable differences | detection of RC-101 by LC-MS/MS ([3]; 0 h): + | detection of RC-101 by LC-MS/MS ([3]; 2 h): + | detection of RC-101 by LC-MS/MS ([3]; 6 h): + | detection of RC-101 by LC-MS/MS ([3]; 12 h): + | detection of RC-101 by LC-MS/MS ([3]; 24 h): + | detection of RC-101 by LC-MS/MS ([3]; 48 h): + | time stable in 3 M urea [4]: at least 24 h | change in amount of RC-101 on storage (HPLC) ([5]; 25 °C, 13 days, % peak area of time 0, n = 3, p > 0.5): no statistically significance difference | change in amount of RC-101 on storage (HPLC) ([5]; 37 °C, 13 days, % peak area of time 0, n = 3, p > 0.5): no statistically significance difference | change in amount of RC-101 on storage (HPLC) ([5]; 65 °C, 168 h, compared with 25 °C, n = 3, p < 0.04): significant decrease
